This is an account of results in patent US11911353B2, “Fatty acid synthase inhibitor and application thereof” (Jiangnan University, priority 2019, dated 2024).

In general, IC50 refers to the midpoint of a concentration-inhibition curve. Low readings indicate greater potency in that assay, high ones weaker potency in that assay. Usually inhibition stands for the relative decrease from the control value, in per cent.

Common to all, as to type: cell-based
Experiment [1] has as its system colon cancer cells HCT116. The experiment is described as follows: MTT tumor proliferation IC50, HCT116. An excerpt: (§1) IC50 (half maximal inhibitory concentration) refers to the half inhibitory concentration of a measured antagonist. It can indicate that a certain concentration of a certain drug or substance (inhibitor) induces tumor cell apoptosis by 50%, and this concentration is referred to as 50% inhibitory concentration, namely, the corresponding concentration when the ratio of apoptotic cells to the total number of cells is equal to 50%. The IC50 value can be used to measure the ability of a drug to induce apoptosis, that is, the higher the inducing ability, the lower the value, which also can indicate the tolerance degree of a certain cell to a drug on the contrary. • (1) Cells in the logarithmic phase are collected, the concentration of a cell suspension is adjusted, it is appropriate to place 100 μl cells in each well of a 96-well plate, the cells are inoculated into the plate to adjust the density of to-be-detected cells to be 1000-10000 cells/well, and edge wells are filled with sterile PBS. • (2) The cells are incubated under 5% CO2 at 37° C., an original culture medium is discarded after complete cell adherence, 200 μl of 1 wt % FBS culture medium containing 0.01 μM, 0.1 μM, 1 μM, 5 μM and 10 μM compound I-1 or cerulenin is added into each well, and there are 6 wells run in duplicate. An equal volume of DMSO is added as a negative control. • (3) After 72 hours of incubation, the cells are photographed for state recording, an original culture medium is discarded, and 100 μl of serum-free culture medium containing 0.5 mg/ml MTT (3-(4,5-dimethylthiazole-2)-2,5-diphenyltetrazolium bromide, trade name thiazolyl blue) is added into each well. • (4) After 2-4 hours of incubation, an original culture medium is discarded, and 150 μl of dimethyl sulfoxide (DMSO) is added into each well and shaken at 300 rpm for 10 minutes to fully dissolve purple crystals. • (5) The absorbance of each well at OD570 nm is measured by an enzyme-linked immunodetection instrument, the absorbance at OD630 nm is used as a reference, dual-wavelength measurement is carried out, and survival rate results are calculated according to the following formula: Cell survival rate=(OD570−OD630)/(OD570 negative control−OD630 negative control);
(§2) wherein, OD570: OD570 value of each treatment group; OD630: OD630 value of each treatment group; OD570 control: OD570 value of the negative control group; OD630 control: OD630 value of the negative control group. • (6) The survival rate results are processed with graphpad 6.0 software according to the concentration gradient, the analysis mode is log (inhibitor) vs. Nonlinear regression (curve fit), and the calculated IC50 value is expressed as x+/−SD.
(§3) The FASN enzyme activity measurement method shown in Experimental Example 18 is used to detect the effects of different substances on FASN enzyme activity. The method shown in Experimental Example 19 is used to detect the effects of different substances on the proliferation of tumor cells, cerulenin is used as a control, and the inhibition rates (%) of different substances on FASN enzyme activity and inhibition rates (IC50 nM) on tumor proliferation are calculated.

Experiment [2] has as its target T1, fatty acid synthase (FASN) in colon cancer cells HCT116 (Homo sapiens, UniProt P49327).
T1 construct: endogenous in cells; host or cells: HCT116 colon cancer cells
The experiment is described as follows: FASN enzyme activity detection in treated HCT116 cells (NADPH absorbance at 340 nm). The settings on record: for inhibition at 20 µM: HCT-116, 4 hours of incubation, read-out: FASN enzyme activity inhibition rate (%).

The subject of experiment [3] is prostate cancer cells PC-3. The experiment is described as follows: MTT tumor proliferation IC50, PC-3. The settings on record: 72 hours of incubation.
Text: as §1, §2, §3

The subject of experiment [4] is tumor cells 22RV1, PC-3, HT-29, Hela, Hep G2, CaCo-2 and HCT116. The experiment is described as follows: MTT proliferation of various tumor cells at single concentration (FIG. 2). The settings on record: 10 μM, 72 hours, 7 different tumor cells. An excerpt:
Cell survival rate=(OD570−OD630)/(OD570 negative control−OD630 negative control); wherein, OD570: OD570 value of each treatment group; OD630: OD630 value of each treatment group; OD570 control: OD570 value of the negative control group; OD630 control: OD630 value of the negative control group.

Setting [5] is: Homo sapiens, HCT-116, 72 hours of incubation.

T1 sequence (P49327 whole entry): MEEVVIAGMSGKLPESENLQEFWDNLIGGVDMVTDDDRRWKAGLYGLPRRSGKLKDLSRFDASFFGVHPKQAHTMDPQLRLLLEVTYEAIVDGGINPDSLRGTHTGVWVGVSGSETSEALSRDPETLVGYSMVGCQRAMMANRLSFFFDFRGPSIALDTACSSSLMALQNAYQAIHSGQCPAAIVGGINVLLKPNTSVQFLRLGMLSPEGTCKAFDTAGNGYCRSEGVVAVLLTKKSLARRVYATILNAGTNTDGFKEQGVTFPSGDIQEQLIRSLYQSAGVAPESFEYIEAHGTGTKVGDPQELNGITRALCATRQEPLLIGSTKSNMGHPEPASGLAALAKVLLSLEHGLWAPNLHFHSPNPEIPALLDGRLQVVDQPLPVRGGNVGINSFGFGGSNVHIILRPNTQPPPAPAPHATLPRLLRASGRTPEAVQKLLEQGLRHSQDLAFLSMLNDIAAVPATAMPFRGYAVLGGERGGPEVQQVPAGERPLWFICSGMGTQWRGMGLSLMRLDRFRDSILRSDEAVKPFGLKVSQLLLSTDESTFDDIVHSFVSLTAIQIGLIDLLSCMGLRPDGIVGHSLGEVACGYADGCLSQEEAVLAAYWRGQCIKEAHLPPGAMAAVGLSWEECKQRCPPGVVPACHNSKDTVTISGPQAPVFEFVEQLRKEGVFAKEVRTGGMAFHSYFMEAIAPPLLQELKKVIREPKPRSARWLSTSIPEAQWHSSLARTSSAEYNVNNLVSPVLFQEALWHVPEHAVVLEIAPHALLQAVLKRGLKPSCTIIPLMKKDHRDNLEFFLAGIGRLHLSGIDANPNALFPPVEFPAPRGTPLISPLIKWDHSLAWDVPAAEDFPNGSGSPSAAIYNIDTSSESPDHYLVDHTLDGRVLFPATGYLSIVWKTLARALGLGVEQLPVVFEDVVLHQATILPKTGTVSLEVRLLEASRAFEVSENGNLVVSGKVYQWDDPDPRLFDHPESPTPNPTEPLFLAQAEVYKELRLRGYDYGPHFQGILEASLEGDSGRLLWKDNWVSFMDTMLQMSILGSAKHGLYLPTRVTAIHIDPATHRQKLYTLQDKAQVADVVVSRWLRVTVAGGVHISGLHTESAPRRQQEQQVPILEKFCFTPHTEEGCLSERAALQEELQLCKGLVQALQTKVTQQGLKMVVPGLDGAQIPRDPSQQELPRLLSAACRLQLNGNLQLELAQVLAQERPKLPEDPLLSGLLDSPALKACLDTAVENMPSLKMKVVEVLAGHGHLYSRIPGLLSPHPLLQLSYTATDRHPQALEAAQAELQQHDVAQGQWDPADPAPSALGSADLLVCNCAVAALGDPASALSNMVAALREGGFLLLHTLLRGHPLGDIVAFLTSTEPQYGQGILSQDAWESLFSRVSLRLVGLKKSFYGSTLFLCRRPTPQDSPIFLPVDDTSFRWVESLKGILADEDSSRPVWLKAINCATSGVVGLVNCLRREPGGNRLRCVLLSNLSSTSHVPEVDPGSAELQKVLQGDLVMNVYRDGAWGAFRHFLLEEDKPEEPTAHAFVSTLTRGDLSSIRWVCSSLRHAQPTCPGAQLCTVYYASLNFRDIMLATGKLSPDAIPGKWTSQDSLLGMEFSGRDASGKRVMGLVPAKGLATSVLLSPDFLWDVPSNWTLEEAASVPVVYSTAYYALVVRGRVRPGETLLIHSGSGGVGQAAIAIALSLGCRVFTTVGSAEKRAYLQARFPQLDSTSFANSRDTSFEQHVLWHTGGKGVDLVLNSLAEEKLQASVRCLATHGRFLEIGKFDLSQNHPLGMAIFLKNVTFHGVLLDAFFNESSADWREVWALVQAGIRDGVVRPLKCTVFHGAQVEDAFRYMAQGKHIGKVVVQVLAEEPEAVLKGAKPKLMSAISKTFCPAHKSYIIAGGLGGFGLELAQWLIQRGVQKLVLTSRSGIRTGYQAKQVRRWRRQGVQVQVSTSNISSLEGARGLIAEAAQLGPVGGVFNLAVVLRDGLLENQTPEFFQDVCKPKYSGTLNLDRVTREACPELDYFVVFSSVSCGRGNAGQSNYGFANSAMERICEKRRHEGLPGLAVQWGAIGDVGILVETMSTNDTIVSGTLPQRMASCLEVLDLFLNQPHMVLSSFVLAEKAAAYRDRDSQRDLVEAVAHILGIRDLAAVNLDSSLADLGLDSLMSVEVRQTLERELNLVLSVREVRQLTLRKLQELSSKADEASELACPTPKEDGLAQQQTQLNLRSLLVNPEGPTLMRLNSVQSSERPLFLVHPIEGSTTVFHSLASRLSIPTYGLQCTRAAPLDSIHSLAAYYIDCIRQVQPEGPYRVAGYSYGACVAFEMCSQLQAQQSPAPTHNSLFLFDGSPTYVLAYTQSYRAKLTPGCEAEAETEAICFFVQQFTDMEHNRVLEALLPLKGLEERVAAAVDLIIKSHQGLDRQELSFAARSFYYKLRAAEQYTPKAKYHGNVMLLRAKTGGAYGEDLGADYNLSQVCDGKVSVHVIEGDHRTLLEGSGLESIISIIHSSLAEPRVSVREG

Turning to `CCOC(=O)CCCC(=O)Nc1ccc(Br)cc1` [Intermediate 2, Ethyl 5-(4-bromophenylamino)-5-oxopentanoate], the IC50 is 22 ± 3.1 nM in experiment [1] (setting [5]) and 18 ± 2.5 nM in experiment [3]. For the same compound, the inhibition at 20 µM in experiment [2] turned out to be 22.2%.
The matching figures for `O=C(CCCNC(=O)NCc1cc(Br)ccc1O)Nc1ccc(Br)cc1` [Compound I-3]: 15 ± 2.5 nM, 14 ± 2.8 nM and 41.2%.
In the same order, the values of `O=C(CCCC(=O)Nc1ccc(Br)cc1)NNC(=O)c1cc(Br)ccc1O` [Compound I-4] are 14 ± 1.7 nM, 11 ± 1.8 nM and 49%.
As to `C=C1C(=O)OC(CCCCCCCC)C1C(=O)O` (centres unmarked) [Compound C75, C75], in experiment [4], the “effect on proliferation of tumor cells” value is “no significant effect on the proliferation of some tumor cells”.
As for `O=C(CCC(=O)Nc1ccccc1)NC(=O)c1ccccc1` [Compound I-7], the half-maximal inhibitory concentration (IC50) in experiment [1] (setting [5]) was found to be 19 ± 1.9 nM; in experiment [3], 15 ± 2.1 nM. Besides, the inhibition at 20 µM in experiment [2] stood at 37.7%.
With `C/C=C/C/C=C/CCC(=O)[C@H]1O[C@H]1C(N)=O` [Cerulenin, cerulenin, reference compound], the figures for the 50% inhibitory concentration (IC50) in experiment [1] (setting [5]) and in experiment [3] were 29 ± 3.2 nM and 18 ± 2.7 nM, respectively. In addition, the “effect on proliferation of tumor cells” value in experiment [4] is on record as “no significant effect on the proliferation of some tumor cells”. In addition, in experiment [2], the inhibition at 20 µM was determined as 21.3%.
Take `O=C(CCC(=O)Nc1ccccc1)/N=C/c1ccccc1` [Compound I-6]: the values for the IC50 in experiment [1] (setting [5]) and in experiment [3] were 17 ± 2.7 nM and 15 ± 1.8 nM, respectively. Besides, the inhibition at 20 µM in experiment [2] was 41.9%.
On to `O=C(CCC(=O)Nc1ccccc1)/N=C/Cc1ccccc1` [Compound I-8], for which the IC50 in experiment [1] (setting [5]) turned out to be 20 ± 3.5 nM; in experiment [3] it was 16 ± 1.7 nM. In experiment [2], the inhibition at 20 µM is 35.2%.
Take “5-(4-bromophenylamino)-5-oxopentanoic acid [Intermediate 1]”: the concentration for half-maximal inhibition (IC50) worked out at 19 ± 2.1 nM in experiment [1] (72 hours of incubation) and 15 ± 1.3 nM in experiment [3]. Further, the “FASN enzyme activity inhibition rate (%)” value in experiment [2] (20 μM, 4 hours of incubation) is listed as 31.87%.
On to `COc1ccc(Br)cc1CNC(=O)NCCCC(=O)Nc1ccc(Br)cc1` [Compound I-2], for which the IC50 in experiment [1] (setting [5]) amounted to 21 ± 1.6 nM; in experiment [3], 16 ± 2.9 nM. Further, the inhibition at 20 µM in experiment [2] is 30.7%.
